US9617240B2 (TEIJIN PHARMA LIMITED, priority 2013, dated 2017)

biological target: T1, oxidase type xanthine oxidase (derived from buttermilk) (Bos taurus, UniProt P80457); experiment: Xanthine oxidase inhibitory activity (absorbance change at 290 nm); assay type: biochemical; conditions: xanthine substrate, 100 mM phosphate buffer, absorbance at 290 nm for 5 minutes; read-out: Inhibitory Activity (50% inhibitory concentration with respect to oxidase type xanthine oxidase)
T1 construct: oxidase type xanthine oxidase (derived from buttermilk, supplied by Calbiochem Novabiochem Corp.); purchased Calbiochem Novabiochem Corp; host or cells: buttermilk (natural source)
Method: The xanthine oxidase inhibitory activity was measured for the compounds synthesized according to the above Examples.
After a test compound was dissolved in DMSO (manufactured by Sigma Co.) so that the concentration is 20 mM, the test compound was prepared and used at a desired concentration at the time of use.
The evaluation of the xanthine oxidase inhibitory activity of the compounds of the present invention was conducted by partially modifying the method described in the literature (Method Enzymatic Analysis, 1, 521-522, 1974). The present evaluation is based on the oxidase type xanthine oxidase inhibitory activity evaluation. That is, a xanthine (manufactured by Sigma Co.) solution prepared at 10 mM in advance using a 20 mM sodium hydroxide solution was adjusted to 30 μM using a 100 mM phosphate buffer solution, and 75 μL/well of each solution was added into a 96-well plate. Aliquots (1.5 μL/well) of each test sample, which was diluted with DMSO so that the concentration is 100 times the final concentration, were added into a 96-well plate, and after mixing, the absorbance at 290 nm was measured by a microplate reader SPECTRA MAX Plus 384 (manufactured by Molecular Devices, LLC). Subsequently, oxidase type xanthine oxidase (derived from buttermilk, supplied by Calbiochem Novabiochem Corp.) was prepared at 30.6 mU/mL using a 100 mM phosphate buffer solution and 73.5 μL/well of each solution was added. Immediately after mixing, the change in absorbance at 290 nm was measured for 5 minutes. The enzyme activity when DMSO was used instead of a test compound solution was defined as 100%, the inhibitory rate of the test compounds was calculated and the 50% inhibitory concentration with respect to oxidase type xanthine oxidase was calculated by fitting to the dose-response curve.
Note that the symbols (+, ++, +++) in the table represent inhibitory activity values as shown below.

T1 sequence (P80457 whole entry): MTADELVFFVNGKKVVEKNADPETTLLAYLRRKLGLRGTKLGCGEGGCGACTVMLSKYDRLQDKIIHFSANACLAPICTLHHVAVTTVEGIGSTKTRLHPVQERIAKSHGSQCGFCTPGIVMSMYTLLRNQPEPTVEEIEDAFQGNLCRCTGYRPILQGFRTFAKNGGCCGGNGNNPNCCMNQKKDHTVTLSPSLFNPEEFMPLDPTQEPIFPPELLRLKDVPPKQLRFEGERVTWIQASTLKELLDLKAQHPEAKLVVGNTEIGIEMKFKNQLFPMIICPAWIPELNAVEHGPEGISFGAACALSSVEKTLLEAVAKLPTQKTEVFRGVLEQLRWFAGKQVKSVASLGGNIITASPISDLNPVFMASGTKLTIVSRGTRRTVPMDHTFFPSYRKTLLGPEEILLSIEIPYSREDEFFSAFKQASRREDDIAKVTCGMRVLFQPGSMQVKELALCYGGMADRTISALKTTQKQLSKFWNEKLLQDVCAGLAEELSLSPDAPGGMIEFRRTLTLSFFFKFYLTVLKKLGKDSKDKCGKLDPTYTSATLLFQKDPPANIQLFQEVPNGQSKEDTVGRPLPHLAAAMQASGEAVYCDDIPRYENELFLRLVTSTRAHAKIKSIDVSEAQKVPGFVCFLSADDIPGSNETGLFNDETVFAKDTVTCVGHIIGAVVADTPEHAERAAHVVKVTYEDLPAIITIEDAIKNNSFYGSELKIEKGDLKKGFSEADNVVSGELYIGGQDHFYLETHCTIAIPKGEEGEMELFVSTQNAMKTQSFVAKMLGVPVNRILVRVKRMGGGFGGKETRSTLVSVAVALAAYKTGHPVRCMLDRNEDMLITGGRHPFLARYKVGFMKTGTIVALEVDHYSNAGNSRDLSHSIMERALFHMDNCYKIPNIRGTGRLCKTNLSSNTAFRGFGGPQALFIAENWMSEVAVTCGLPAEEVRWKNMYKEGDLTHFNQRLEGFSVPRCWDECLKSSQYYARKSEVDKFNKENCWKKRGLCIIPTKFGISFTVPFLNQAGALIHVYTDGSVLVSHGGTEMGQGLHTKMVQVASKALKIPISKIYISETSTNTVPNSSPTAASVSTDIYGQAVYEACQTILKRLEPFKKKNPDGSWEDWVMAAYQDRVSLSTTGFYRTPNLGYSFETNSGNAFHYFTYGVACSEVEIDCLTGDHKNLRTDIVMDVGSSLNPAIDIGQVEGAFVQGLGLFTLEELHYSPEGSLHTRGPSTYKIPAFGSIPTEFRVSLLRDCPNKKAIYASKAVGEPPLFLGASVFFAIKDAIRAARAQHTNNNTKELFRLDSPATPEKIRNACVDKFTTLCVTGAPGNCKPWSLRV

IC50, ≥ 10 nM:
N#Cc1cc(-n2cc(C(=O)O)cn2)ncc1-c1cccc([N+](=O)[O-])c1 [Compound 72, 1-[4-cyano-5-(3-nitrophenyl)pyridin-2-yl]-1H-pyrazole-4-carboxylic acid]
N#Cc1cc(-n2cc(C(=O)O)cn2)ncc1-c1ccncc1 [Compound 62, 1-[4-cyano-5-(pyridin-4-yl)pyridin-2-yl]-1H-pyrazole-4-carboxylic acid]
CCOc1cccc(-c2ccc(-n3cc(C(=O)O)cn3)nc2C#N)c1 [Compound 93, 1-[6-cyano-5-(3-ethoxyphenyl)pyridin-2-yl]-1H-pyrazole-4-carboxylic acid]
N#Cc1cc(-n2cc(C(=O)O)cn2)cnc1-c1cc(F)ccc1F [Compound 80, 1-[5-cyano-6-(2,5-difluorophenyl)pyridin-3-yl]-1H-pyrazole-4-carboxylic acid]
N#Cc1cc(-n2cc(C(=O)O)cn2)cnc1-c1ccc(F)cc1F [Compound 77, 1-[5-cyano-6-(2,4-difluorophenyl)pyridin-3-yl]-1H-pyrazole-4-carboxylic acid]
N#Cc1cc(-n2cc(C(=O)O)cn2)cnc1-c1cccc(F)c1F [Compound 81, 1-[5-cyano-6-(2,3-difluorophenyl)pyridin-3-yl]-1H-pyrazole-4-carboxylic acid]
N#Cc1cc(-n2cc(C(=O)O)cn2)ncc1-c1ccccc1C(F)(F)F [Compound 8, 1-{4-cyano-5-[2-(trifluoromethyl)phenyl]pyridin-2-yl}-1H-pyrazole-4-carboxylic acid]

IC50, 1 to 5 nM:
Cc1cccc(-c2cnc(-n3cc(C(=O)O)cn3)cc2C#N)c1F [Compound 36, 1-[4-cyano-5-(2-fluoro-3-methylphenyl)pyridin-2-yl]-1H-pyrazole-4-carboxylic acid]
Cc1cc(-c2cnc(-n3cc(C(=O)O)cn3)cc2C#N)ccc1Cl [Compound 51, 1-[4-cyano-5-(4-chloro-3-methylphenyl)pyridin-2-yl]-1H-pyrazole-4-carboxylic acid]
N#Cc1cc(-n2cc(C(=O)O)cn2)ncc1-c1ccc(N)cc1 [Compound 68, 1-[5-(4-aminophenyl)-4-cyanopyridine-2-yl]-1H-pyrazole-4-carboxylic acid]
COc1ccccc1-c1cnc(-n2cc(C(=O)O)cn2)cc1C#N [Compound 7, 1-[4-cyano-5-(2-methoxyphenyl)pyridin-2-yl]-1H-pyrazole-4-carboxylic]
COc1cccc(-c2cnc(-n3cc(C(=O)O)cn3)cc2C#N)c1 [Compound 13, 1-[4-cyano-5-(3-methoxyphenyl)pyridin-2-yl]-1H-pyrazole-4-carboxylic acid]
COc1ccc(-c2cnc(-n3cc(C(=O)O)cn3)cc2C#N)cc1 [Compound 2, 1-[4-cyano-5-(4-methoxyphenyl)pyridin-2-yl]-1H-pyrazole-4-carboxylic acid]
CSc1ccc(-c2cnc(-n3cc(C(=O)O)cn3)cc2C#N)cc1 [Compound 63, 1-{4-cyano-5-[4-(methylsulfanyl)phenyl]pyridin-2-yl}-1H-pyrazole-4-carboxylic acid]
CC(C)c1cccc(-c2cnc(-n3cc(C(=O)O)cn3)cc2C#N)c1 [Compound 48, 1-{4-cyano-5-[3-(propane-2-yl)phenyl]pyridine-2-yl}-1H-pyrazole-4-carboxylic acid]
N#Cc1cc(-n2cc(C(=O)O)cn2)ncc1-c1cccc(Cl)c1F [Compound 41, 1-[4-cyano-5-(3-chloro-2-fluorophenyl)pyridin-2-yl]-1H-pyrazole-4-carboxylic acid]
N#Cc1cc(-n2cc(C(=O)O)cn2)ncc1-c1cccc(F)c1F [Compound 20, 1-[4-cyano-5-(2,3-difluorophenyl)pyridin-2-yl]-1H-pyrazole-4-carboxylic acid]
COCc1ccc(-c2cnc(-n3cc(C(=O)O)cn3)cc2C#N)cc1 [Compound 55, 1-{4-cyano-5-[4-(methoxymethyl)phenyl]pyridin-2-yl}-1H-pyrazole-4-carboxylic acid]
N#Cc1cc(-n2cc(C(=O)O)cn2)ncc1-c1ccc(Cl)cc1 [Compound 15, 1-[4-cyano-5-(4-chlorophenyl)pyridin-2-yl]-1H-pyrazole-4-carboxylic acid]
COc1cccc(-c2cnc(-n3cc(C(=O)O)c(N)n3)cc2C#N)c1 [Compound 102, 3-amino-1-[4-cyano-5-(3-methoxyphenyl)pyridin-2-yl]-1H-pyrazole-4-carboxylic acid]
Cc1cccc(-c2cnc(-n3cc(C(=O)O)cn3)cc2C#N)c1C [Compound 38, 1-[4-cyano-5-(2,3-dimethylphenyl)pyridin-2-yl]-1H-pyrazole-4-carboxylic acid]
Cc1cccc(-c2cnc(-n3cc(C(=O)O)c(N)n3)cc2C#N)c1 [Compound 101, 3-amino-1-[4-cyano-5-(3-methylphenyl)pyridin-2-yl]-1H-pyrazole-4-carboxylic acid]
Cc1ccc(-c2cnc(-n3cc(C(=O)O)cn3)cc2C#N)c(F)c1 [Compound 33, 1-[4-cyano-5-(2-fluoro-4-methylphenyl)pyridin-2-yl]-1H-pyrazole-4-carboxylic acid]
N#Cc1cc(-n2cc(C(=O)O)cn2)ncc1-c1ccc(-c2ccccc2)cc1 [Compound 65, 1-[4-cyano-5-(4-phenylphenyl)pyridine-2-yl]-1H-pyrazole-4-carboxyic acid]
Cc1ccc(-c2cnc(-n3cc(C(=O)O)c(N)n3)cc2C#N)c(F)c1 [Compound 103, 3-amino-1-[4-cyano-5-(2-fluoro-4-methylphenyl)pyridin-2-yl]-1H-pyrazole-4-carboxylic acid]
Cc1cc(-c2cnc(-n3cc(C(=O)O)cn3)cc2C#N)ccc1F [Compound 37, 1-[4-cyano-5-(4-fluoro-3-methylphenyl)pyridin-2-yl]-1H-pyrazole-4-carboxylic acid]
Cc1ccc(F)c(-c2cnc(-n3cc(C(=O)O)cn3)cc2C#N)c1 [Compound 34, 1-[4-cyano-5-(2-fluoro-5-methylphenyl)pyridin-2-yl]-1H-pyrazole-4-carboxylic acid]
N#Cc1cc(-n2cc(C(=O)O)cn2)ncc1-c1ccc(Oc2ccccc2)cc1 [Compound 54, 1-[4-cyano-5-(4-phenoxyphenyl)pyridin-2-yl]-1H-pyrazole-4-carboxylic acid]
CC(C)Oc1ccc(-c2cnc(-n3cc(C(=O)O)cn3)cc2C#N)cc1 [Compound 52]
N#Cc1cc(-n2cc(C(=O)O)cn2)ncc1-c1ccc(C(=O)N2CCOCC2)cc1 [Compound 70, 1-(4-cyano-5-{4-[(morpholine-4-yl)carbonyl]phenyl}pyridine-2-yl)-1H-pyrazole-4-carboxylic acid]
CC(C)(C)c1ccc(-c2cnc(-n3cc(C(=O)O)cn3)cc2C#N)cc1 [Compound 53, 1-[5-(4-tert-butylphenyl)-4-cyanopyridin-2-yl]-1H-pyrazole-4-carboxylic acid]
COc1cccc(-c2cnc(-n3cc(C(=O)O)cn3)cc2C#N)c1F [Compound 19, 1-[4-cyano-5-(2-fluoro-3-methoxyphenyl)pyridin-2-yl]-1H-pyrazole-4-carboxylic acid]
1-[5-(4-acetophenyl)-4-cyanopyridin-2-yl]-1H-pyrazole-4-carboxylic acid [Compound 71]
N#Cc1cc(-n2cc(C(=O)O)cn2)ncc1-c1ccc(F)cc1F [Compound 32, 1-[4-cyano-5-(2,4-difluorophenyl)pyridin-2-yl]-1H-pyrazole-4-carboxylic acid]
N#Cc1cc(-n2cc(C(=O)O)c(N)n2)ncc1-c1ccccc1 [Compound 97, 3-amino-1-(4-cyano-5-phenylpyridin-2-yl)-1H-pyrazole-4-carboxylic acid]
CN(C)c1ccc(-c2cnc(-n3cc(C(=O)O)cn3)cc2C#N)cn1 [Compound 59, 1-{4-cyano-5-[6-(dimethylamino)pyridin-3-yl]pyridin-2-yl}-1H-pyrazole-4-carboxylic acid]

IC50, 5 to 10 nM:
Cc1ccc(-c2ncc(-n3cc(C(=O)O)cn3)cc2C#N)cc1F [Compound 83, 1-[5-cyano-6-(3-fluoro-4-methylphenyl)pyridin-3-yl]-1H-pyrazole-4-carboxylic acid]
N#Cc1nc(-n2cc(C(=O)O)cn2)ccc1-c1c(F)cccc1F [Compound 95, 1-[6-cyano-5-(2,6-difluorophenyl)pyridin-2-yl]-1H-pyrazole-4-carboxylic acid]
CCOc1cccc(F)c1-c1cnc(-n2cc(C(=O)O)cn2)cc1C#N [Compound 17, 1-[4-cyano-5-(2-ethoxy-6-fluorophenyl)pyridin-2-yl]-1H-pyrazole-4-carboxylic acid]
